Reference: PMC5408612, “Biophysical studies of cholesterol effects on chromatin” (Journal of Lipid Research, 2017)

Target: T1, long chromatin fibers (chicken histone octamer on 177 bp x 36 array of 601 DNA) (Gallus gallus, UniProt P02263+P0C1H3+P62801+P84229)
T1 construct: gene H3-I
Conditions: labelled compound; 0.5 and 1 uM; on ice; with or without 4.5 mM MgCl2; histone-DNA complex, site on histone versus DNA not resolved

Compound: CC1=CC(C)=[N+]2C1=C(CC[C@@H](C)[C@H]1CC[C@H]3[C@@H]4CC=C5C[C@@H](O)CC[C@]5(C)[C@H]4CC[C@]13C)c1c(C)cc(C)n1[B-]2(F)F [TopFluor cholesterol, 23-(dipyrrometheneborondifluoride)-24-norcholesterol]
- fluorescence co-migration in native agarose gel (EMSA), pelleting assay: cholesterol bound avidly to open or compacted chromatin fibers
